# Measured values as given in patent publication US20150126465A1, “PROCESS FOR PRODUCING DERIVATIVES OF PYROSTEGIA VENUSTA, DERIVATIVES OF PYROSTEGIA VENUSTA, PHARMACEUTICAL COMPOSITIONS AND ITS USES” (priority 2011, published 2015).
# Like-named read-outs stand apart in the source and are kept apart here.
# Key:
# Format in all cases: cell-based
# [1] = test system: Candida parapsilosis USP 1933; assay: MIC/CFM by microdilution (CLSI M27-A2); settings: Lodderomyces parapsilosis, USP1933; for MIC: read-out: MIC
# [2] = test system: Candida tropicalis USP B3; assay: MIC by microdilution (CLSI M27-A2); settings: Candida tropicalis, USPB3; Table 14, C. Tropicalis UPS B3; read-out: MIC
# [3] = test system: Candida albicans OF-M3-20; assay: MIC/CFM by microdilution (CLSI M27-A2); settings: Candida albicans, OFM320; for MIC: read-out: MIC
# Description: (§1) Pure substances termed P1 and P2 previously dissolved in 20% DMSO, were diluted in RPMI medium, with final concentrations of 96 μg.mL-1. […] The same was also tested individually, diluted in RPMI medium, with initial concentration of 1 μL.mL-1. […] Cultures of Candida sp. were prepared and standardized in […] saline solution at 0.85%. For inoculums standardization, a spectrophotometer equipment was used, with wavelength at 530 nm and absorbance adjustment between 0.130 and 0.150, having as white the saline solution free of inoculum or any other contaminant, corresponding to concentrations of 10^6 CFU/mL. In this condition the inoculum “mother” was diluted 50 times and from this inoculum “child” the dilution was performed 20 times to obtain a standard inoculum in 10^3 cells per well. […] To aid in the growth view, were added to the wells dye 50 μL 2,3,5-triphenyltetrazolium chloride (TTC) at 5 mg.mL “1, being performed the readings after 4 hours of incubation. Prior to the addition of dye, aliquots of 96-well plate were transferred to Petri with Agar-Sabouraud Dextrose to determine the Minimum Fungicidal Concentration. Plates were incubated for 24 hours at 35° C.
# [4] = test system: Candida albicans OF-M7-19; assay: MIC/CFM by microdilution (CLSI M27-A2); settings: Candida albicans, OFM719; for MIC: read-out: MIC
# Description: as §1
# [5] = test system: Candida albicans USP 1; assay: MIC/CFM by microdilution (CLSI M27-A2); settings: Candida albicans, USP1; for MIC: read-out: MIC
# Description: as §1
# [6] = test system: Candida albicans ATCC 10231; assay: MIC/CFM by microdilution (CLSI M27-A2); settings: Candida albicans, ATCC10231; for MIC: read-out: MIC
# [7] = test system: Candida glabrata ATCC; assay: MIC/CFM against Candida sp. strains; settings: Nakaseomyces glabratus, Table 14, Candida glabrata ATCC
# [8] = test system: Candida krusei ATCC 6258; assay: MIC/CFM by microdilution (CLSI M27-A2); settings: Pichia kudriavzevii, ATCC6258, read-out: MIC
# [9] = test system: Candida tropicalis USP 1658; assay: MIC by microdilution (CLSI M27-A2); settings: Candida tropicalis, USP1658; Table 12, C. tropicalis USP 1658, 48 h, 35° C.; read-out: MIC
# [10] = test system: Candida guilhermondii USP; assay: MIC/CFM by microdilution (CLSI M27-A2); settings: for MIC: read-out: MIC
# [11] = test system: Candida krusei USP 2223; assay: MIC by microdilution (CLSI M27-A2); settings: Pichia kudriavzevii, USP2223, read-out: MIC
# [12] = test system: C. Albicans USP 2; assay: MIC/CFM against Candida sp. strains
# [13] = test system: Microsporum canis ATCC 32903; assay: MIC by microdilution, filamentous fungi (CLSI M38-A); settings: ATCC32903, 168 h; Table 13, Microsporum canis ATCC 32903, 7 days, 28° C.; read-out: MIC
# Description: (§2) Pure substances termed P1 and P2 previously dissolved in 20% DMSO, were diluted in RPMI medium, with final concentrations of 96 μg.mL-1. […] Cultures of filamentous fungi described below were inoculated in Agar-Batata Dextrose medium and inoculated for 7 days, at 28° C. Colonies of cultures inoculated for 7 days in an oven at 28° C. were shrouded with 0.85% saline solution, scraped and then transferred to conical tubes. After resting for 5 minutes, the supernatant was transferred to new conical tubes for subsequent quantification in spectrophotometer, at 530 nm, with the transmittance adjustment of 80-82% for A. niger and 70% for other microorganisms. After adjustment, there was a 1:50 dilution in RPM. The determination of Minimum Inhibitory Concentration was performed after 7 days, at 28° C. After the incubation period, aliquots of 96-well plates were transferred to Petri plates with Potato Dextrose Agar, to determine the Minimum Fungicidal Concentration. Plates were inoculated for more 7 days, at 28° C.
# [14] = test system: Trichophyton menthagrophyton ATCC 9533; assay: as above; settings: ATCC9533, 168 h; Table 13, Trichophyton menthagrophyton ATCC 9533, 7 days, 28° C.; read-out: MIC
# Description: as §2
# [15] = test system: Candida parapsilosis ATCC 22019; assay: MIC/CFM by microdilution (CLSI M27-A2); settings: Lodderomyces parapsilosis, ATCC22019; for MIC: read-out: MIC
# [16] = test system: Candida albicans USP 1565; assay: MIC by microdilution (CLSI M27-A2); settings: Candida albicans, USP1565; Table 12, C. albicans USP 1565, 48 h, 35° C.; read-out: MIC
structure (smiles),measurement,setting,value
Clc1ccc(COC(Cn2ccnc2)c2ccc(Cl)cc2Cl)c(Cl)c1 (stereo not shown) [Miconazol],MIC,"[1]; Table 12, C. parapsilosis USP 1933, 48 h, 35° C.",1 µg/mL
same,MFC,"[1]; Table 14, C. parapsilosis USP 1933 ATCC, read-out: CFM (Minimum Fungicidal Concentration)",< 0.5 µg/mL
same,MIC,"[1]; Table 14, C. parapsilosis USP 1933 ATCC",< 0.5 µg/mL
same,MIC,[2],< 0.5 µg/mL
same,MIC,"[3]; Table 12, C. albicans OF M3-20, 48 h, 35° C.",< 0.125 µg/mL
same,MFC,"[3]; Table 14, C. Albicans OF M3-20, read-out: CFM (Minimum Fungicidal Concentration)",< 0.5 µg/mL
same,MIC,"[3]; Table 14, C. Albicans OF M3-20",< 0.5 µg/mL
same,MIC,"[4]; Table 12, C. albicans OF M7-19, 48 h, 35° C.",< 0.125 µg/mL
same,MFC,"[4]; Table 14, C. Albicans OF M7-19, read-out: CFM (Minimum Fungicidal Concentration)",< 0.5 µg/mL
same,MIC,"[4]; Table 14, C. Albicans OF M7-19",< 0.5 µg/mL
same,MIC,"[5]; Table 12, C. albicans USP 1, 48 h, 35° C.",< 0.125 µg/mL
same,MFC,"[5]; Table 14, C. Albicans USP 1, read-out: CFM (Minimum Fungicidal Concentration)",4 µg/mL
same,MIC,"[5]; Table 14, C. Albicans USP 1",1 µg/mL
same,MIC,"[6]; Table 12, C. albicans ATCC 10231, 48 h, 35° C.",4 µg/mL
same,MFC,"[6]; Table 14, C. Albicans ATCC 10231, read-out: CFM (Minimum Fungicidal Concentration)",1 µg/mL
same,MIC,"[6]; Table 14, C. Albicans ATCC 10231",< 0.5 µg/mL
same,MIC,[7],< 0.5 µg/mL
same,MFC,[7]; read-out: CFM (Minimum Fungicidal Concentration),2 µg/mL
same,MIC,"[8]; Table 12, C. krusei ATCC 6258, 48 h, 35° C.",< 1 µg/mL
same,MIC,"[8]; Table 14, C. krusei ATCC",1 µg/mL
same,MIC,[9],< 2 µg/mL
same,MIC,"[10]; Candida, Table 12, C. guilhermondii USP, 48 h, 35° C.",2 µg/mL
same,MFC,"[10]; Table 14, Candida guilhermondi USPATCC, read-out: CFM (Minimum Fungicidal Concentration)",1 µg/mL
same,MIC,"[10]; Table 14, Candida guilhermondi USPATCC",1 µg/mL
same,MIC,"[11]; Table 12, C. krusei USP 2223, 48 h, 35° C.",1 µg/mL
same,MIC,"[11]; Table 14, C. krusei USP 2223",4 µg/mL
same,MIC,"[12]; Table 14, C. Albicans USP 2",< 0.5 µg/mL
same,MFC,"[12]; Table 14, C. Albicans USP 2, read-out: CFM (Minimum Fungicidal Concentration)",< 0.5 µg/mL
same,MIC,[13],2 µg/mL
same,MIC,[14],2 µg/mL
same,MIC,"[15]; Table 12, C. parapsilosis ATCC 22019, 48 h, 35° C.",1 µg/mL
same,MFC,"[15]; Table 14, C. parapsilosis ATCC 22019, read-out: CFM (Minimum Fungicidal Concentration)",1 µg/mL
same,MIC,"[15]; Table 14, C. parapsilosis ATCC 22019",1 µg/mL
same,MIC,[16],< 0.125 µg/mL
